The target of test [1] is T1, full-length wild-type K-Ras (Homo sapiens, UniProt P01116).
T1 construct: His6; made in house; host or cells: Escherichia coli BL21(DE3)
As to the kind of experiment: Disulfide fragment labeling of full-length wild-type K-Ras (Cys 72 selectivity). It counts as binding. The conditions noted are these: wild-type K-Ras contains 4 native cysteine residues.

Test [2] deals with T2, H-Ras(M72C) GppNHp binding to Raf-1-RBD (Homo sapiens, UniProt P01112, M72C).
T2 construct: and H-Ras (residues 1-166) were transformed into Escherichia coli; His6; made in house; host or cells: Escherichia coli BL21(DE3)
Kind of test: Raf-1-RBD pull-down of labeled H-Ras(M72C) GppNHp. The conditions noted are these: H-Ras(M72C) GppNHp pre-labeled with compound; various concentrations of H-Ras. How it is done: (§1) FIGS. 29A-29D. […] FIG. 29D: Reconstruction of Ras cycle is achieved by inducing nucleotide exchange of 100 nM Ras by various concentrations of SOS^cat for either 1 or 2 hours and subsequent pull-down by Raf-1-RBD.
(§2) FIGS. 33A-33D. […] In FIG. 33B) through FIG. 33D), normalized pull-down signals are shown below the blot. S. E. M for each signal, number of replicates, and […] for each comparative Standard T-Test are summarized herein (see Tables 33B, 33C, and 33D). […] Comparative statistics were done for normalized pull-down signals between protein constructs of the same condition (i.e. in FIG. 33B) and FIG. 33C), column 1 for unlabeled and 1 for labeled protein, 2 for unlabeled and 2 for labeled, and so on were statistically compared, and in FIG. 33D) only the +SOS^cat and +GppNHp lanes were compared across protein constructs). FIG. 33A) Cartoon representation of pull down protocol. […] Reported values are quantified pull-down signals normalized to input. FIG. 33B) Cartoon representation of pull down protocol. […] FIG. 33C) Cartoon representation of pull down protocol. […] FIG. 33D) Cartoon representation of pull down protocol. Ras activation is achieved by catalyzing nucleotide exchange by SOS^cat and indirectly reading out activated Ras by subsequent pull down by Raf-1-RBD.

Test [3] deals with T3, H-Ras(M72C) GDP binding to SOScat (Homo sapiens, UniProt P01112, M72C).
T3 construct: and H-Ras (residues 1-166) were transformed into Escherichia coli; His6; made in house; host or cells: Escherichia coli BL21(DE3)
Kind of test: SOScat pull-down of H-Ras(M72C) GDP. To be noted: SOScat pull-down of H-Ras(M72C) GDP at various concentrations of H-Ras.

Test [4] has as its target T3, H-Ras(M72C) GDP binding to SOScat. As to the kind of experiment: Ras GDP in vitro pull down by His6 tagged SOScat. How it is done: Ras GDP In Vitro Pull Down Assay by His6 Tagged SOS^CAT
This experiment was created based on a procedure published in Hall et al., 2001. For each SOS^CAT in vitro pull down the total volume was 500 μL. Each reaction had the following final composition: Either 20, 80, 200, 400, or 800 nM Ras GDP (from 0.2 mg/mL Ras stock), 75 nM BSA (2.5 μg, 5 μL of 0.5 mg/mL BSA stock), 200 nM of His6-SOS^CAT (6 μg, 3 μL of diluted 0.2 mg/mL stock of His6-SOS^CAT), and SOS^CAT Pull Down Buffer to volume (20 mM Tris (pH 7.6), 50 mM NaCl, 5 mM EDTA, 1% Triton X-100, 20 mM imidazole). Samples were then mixed by gentle rotation at 4° C. for 30 min. While equilibrating, add 50 μL Ni-NTA slurry (Qiagen) to a cellulose acetate spin cup and spin at 5,000 rpm on a tabletop centrifuge for 30 seconds. Wash the beads with 400 μL of SOS^CAT Pull Down Buffer to wash away bead storage buffer. Before adding each pull down solution, take 10 μL and save as a loading control sample. To each spin cup filled with washed Ni-NTA beads, add the remaining equilibrated pull down solution, seal the spin cup with parafilm and let rotate at 4° C. for 30 more minutes. After mixing, centrifuge the sample for 30 seconds at 5,000 rpm. Toss flow through. Wash the beads×5 with 400 μL of SOS^CAT Pull Down Buffer. After last wash, centrifuge one last time to remove any excess buffer stuck to the beads. To each cup, add 50 μL of 5×SDS loading buffer and mix by vortexing. Let the buffer sit on the beads for 5 minutes and then elute into a fresh tube by centrifuging at 5000 rpm for 1.5 minutes. Load 10 μL of each loading control sample and 25 μL of each eluted pull down onto a SDS-PAGE gel and transfer to a nitrocellulose blot for Western Blot analysis. Block with 5% BSA TBS buffer and then blot with pan Ras primary antibody at a 1:500 dilution in 5% BSA in TBST (Cell Signaling #3965). Blots were read out using LICOR compatible secondary antibodies and quantified. The largest input signal was normalized to one for each protein construct and each pull-down signal (i.e. 20 nM, 80 nM, 200 nM, 400 nM, and 800 nM respectively) was reported relative to that maximum signal. Thus, normalized pull-down signals represent the proportion of Ras pulled down relative to the maximum blot signal detected for that particular protein construct.

In test [5] the target is T4, H-Ras(M72C) GppNHp (Homo sapiens, UniProt P01112, M72C). Kind of test: EDTA catalyzed exchange and subsequent pull-down by Raf-1-RBD (nucleotide preference). Also on record: and H-Ras (residues 1-166) were transformed into Escherichia coli; His6; made in house; host or cells: Escherichia coli BL21(DE3). It counts as biochemical. To be noted: EDTA catalyzed exchange, then pull-down by Raf-1-RBD. How it is done:
as §1, §2

Test [6] addresses T4, H-Ras(M72C) GppNHp. As to the kind of experiment: βME50 and percent labeling of tethering fragments, GppNHp state. It counts as binding. Further details: Labeling studies were conducted using the 1-166 H-Ras(M72C) construct containing all endogenous cysteines; His6; made in house; host or cells: Escherichia coli BL21(DE3). How it is done: FIG. 32. […] Percent labeling against H-Ras(M72C) GDP and GppNHp at the screening βME concentration (1 mM) are graphed.
A tethering library of 960 disulfides were screened against 1-169 K-Ras(M72C) GDP using intact protein mass spectrometry to monitor percent modification (See Methods, and FIG. 37). […] To better prioritize tethering fragments, a βME50 value (the concentration of βME needed to reduce disulfide fragment modification to 50%) was determined for each compound. A higher βME50 value corresponds to a better fragment as it can bind with increasing concentrations of competitive thiol (Erlanson et al., 2004; Yang et al., 2009).

Entries after “also recorded” stand apart in the source; their conditions may differ.

Regarding `COc1ccc(-n2ncc(C(=O)NCCCSSCCN(C)C)c2C(F)(F)F)cc1` [Compound 2C07, N-(3-((2-(dimethylamino)ethyl)disulfanyl)propyl)-1-(4-methoxyphenyl)-5-(trifluoromethyl)-1H-pyrazole-4-carboxamide], the “modification of full-length wild-type K-Ras” value in test [1] was “did not modify”. Besides, in test [2], the Raf-1-RBD binding result is reported as “does not inhibit Raf binding; also recorded: permits Raf-1-RBD binding”. Besides, in test [3], the SOS binding result is “inhibits SOS binding”. Besides, the “Normalized Averaged Pull Down (SOS PD Assay)” value in test [4] (H-Ras(M72C) 2C07, [Ras] printed 200 nM, input normalized 1.00) came to 0.09; in test [4] (H-Ras(M72C) 2C07, [Ras] 20 nM), 0.002; in test [4] (H-Ras(M72C) 2C07, [Ras] 80 nM), 0.01; in test [4] (H-Ras(M72C) 2C07, [Ras] 200 nM), 0.03; in test [4] (H-Ras(M72C) 2C07, [Ras] 400 nM), 0.06. Besides, the nucleotide preference entry at H-Ras(M72C) GppNHp [5] is given as “alters intrinsic Ras affinity for nucleotide towards GDP; also recorded: alters Ras nucleotide preference”. For the same compound, the βME50 at H-Ras(M72C) GppNHp [6] (H-Ras(M72C) GppNHp, βME concentration that reduces fragment modification to 50%) is 1.10 mM. Further, at H-Ras(M72C) GppNHp [6] (disulfide tethering at Cys 72), the “labeling of H-Ras(M72C) GppNHp” value is recorded as “readily modifies”.

For the origin of these results see US11136297B2, “Compositions and methods for treating cancer” (THE REGENTS OF THE UNIVERSITY OF CALIFORNIA, priority 2016, dated 2021).
